The nature of this data set: PAMPA model of passive BBB permeability. The format is in vitro ADME. As to conditions: passive transport. How it is done:
PAMPA is used as an in vitro model of passive BBB permeability. An artificial membrane immobilized on a filter is placed between a donor and acceptor compartment. At the start of the test, a drug is introduced in the donor compartment. Following the permeation period, the concentration of the drug in the donor and acceptor compartments are measured using UV spectroscopy. Therefore the permeability of any compound with a UV chromophore can be determined by this method.
The tested compound stock solutions were diluted 200-fold in universal buffer at pH 7.4 and added to the donor wells. The filter membrane was coated with PBL in dodecane and the acceptor well was filled with pH 7.4 buffer. The acceptor filter plate was carefully put on the donor plate to form a ‘sandwich’ (consisting of the aqueous donor with test the compound on the bottom, an artificial lipid membrane in the middle, and an aqueous acceptor on the top). The test compound diffused from the donor well through the lipid membrane and into the acceptor well. The ‘sandwich’ was left undisturbed for 18 hrs while the permeation occurred. The concentration of the test compound in the acceptor, the donor, and the reference wells was determined using the UV plate reader. Effective permeability (Pe) of each compound was calculated by using the pION PSR4p software. Samples were analyzed in triplicate and the average of the three runs was reported. Quality control standards were run with each sample set to monitor the consistency of the analysis set.
A general note: In PAMPA a lipid-coated filter parts donor from acceptor wells.

Regarding `CC(C)CN(CC(=O)N(CCCN1CCCC1=O)CC(N)=O)C(=O)CNCCc1ccccc1F` [Compound G79, [N-(2-(2′-Fluorophenyl)ethyl)glycyl]-[N-(2-methylpropyl)glycyl]-N-[3-(2′-oxopyrrolidinyl)propyl]glycinamide], the “crossing the BBB in the PAMPA model (in words)” value was “unable to cross the BBB in the PAMPA model”.

Values taken from patent US10106577B2, “Agonists of neurotrophin receptors and their use as medicaments” (BIONURE FARMA, S.L., priority 2010, dated 2018).
